pIC50: −log10 of the molar value. Values joined by “and” are separate entries in the source; they are usually repeats but may differ in a detail not shown here. Equal entries are not always repeated. Where two headings read alike, the source gives them in different places.
Columns and labels:
[1] = tested on: 8226/Dox4 cells; experiment: Parsimonious regression model estimates of count and Vincristine IC50; format: cell-based, human; details: Homo sapiens, read-out: Estimated IC50
Method: (§1) In vitro testing of MDR-Oligonucleotides was done on the multidrug-resistant (MDR+) RPMI-8226/Dox4 human multiple myeloma cell line (gift of Dr. William Dalton, Univ. Arizona Cancer Ctr., Tucson). Cells were incubated in vitro for 4 days at 37° C. with MDR-oligos at 0.2 μM final concentration; pulsed 18 hr with serial 5-fold dilutions of chemotherapeutic drug (vincristine) from 1×10^-4 M to 2×10^-10 M. Cells were then washed, and incubated for an additional 4 days. Tritiated thymidine (^3 H-TdR) was added for last 18 hr to measure status of cellular proliferation. Controls included MDR^+ 8226 cells similarly treated with vincristine but pretreated either with (a) control ODNs, or (b) culture medium only.
The following mathematical/statistical model was used to analyze the effects of oligos and various drug treatments on targeted tumor cells in these studies. The model is based on experiments which generally involve treatment of tumor cells with one of several ODNs or media only, and with several dose levels of an anti-cancer agent (such as, for example, vincristine (VCR)) or media only. Analysis goals were to model the relationship of cell kill to the dose of VCR (for example), and to compare the effects of the various ODNs.
This final model contained 10 regressor variables.
Various estimates of parameters from the parsimonious model are shown in TABLE 13, which contains the model estimate of the count for each ODN with media only; differences here (when compared to "media only" [no ODN]) reflect the cell kill associated with the ODN alone. TABLE 13 also contains an estimate of IC50 values, the dose of vincristine (VCR) which is estimated to produce an expected count which is exactly half that expected with "media only" [no VCR]. While formal statistical comparisons of the IC50 values of the various ODNs is not possible, an ordering of the ODNs by estimated IC50 values is possible.

[2] = tested on: 8226/Dox human myeloma cells; experiment: Sensitivity of 8226/Dox cells to Vincristine with increasing time after Vincristine exposure; format: cell-based; details: for pIC50: Homo sapiens; for Relative Sensitization (fold increase) Day 5: Day 5 after Vincristine exposure; for Relative Sensitization (fold increase) Day 7: Day 7 after Vincristine exposure; for Relative Sensitization (fold increase) Day 9: Day 9 after Vincristine exposure
Method: As shown in this example, several oligos which target the MDR1 gene are able to sensitize multidrug-resistant cell lines to the cytotoxic effects of the chemotherapeutic agent Vincristine. […] The cells were then washed and seeded into 96-well plates (quadruplicate replicates) for pulsing with tritiated thymidine 3 days later. Cells were harvested the next day (=4th day after drug treatment). Tritiated thymidine uptake was analyzed by liquid scintillation.
As shown in this example, it was determined that there was an increase in sensitivity of multidrug-resistant 8226/Dox human myeloma cells to Vincristine with increasing time of incubation following initial exposure to Vincristine. The experimental conditions were identical to those utilized in obtaining the data shown in Table 7, except that the present experiment had two additional time points.

[3] = tested on: 8226/Dox4 human myeloma cells; experiment: Vincristine IC50 summary after MDR-oligo treatment; format: cell-based; details: Homo sapiens, read-out: Vincristine IC50
Method: as §1

[4] = tested on: CEM/VLB10 human leukemia cells; experiment: Sensitization of CEM/VLB10 cells to Vincristine by MDR-oligos in 5% oxygen; format: cell-based; details: for pIC50: read-out: IC50 dose
Method: (§2) As shown in this example, several oligos which target the MDR1 gene are able to sensitize multidrug-resistant cell lines to the cytotoxic effects of the chemotherapeutic agent Vincristine. Tumor cells were treated in vitro with 10 μM of the indicated oligo for 4 days at 37° C., then counted, dispensed into individual tubes, and pulsed with Vincristine at various doses (serial 5-fold dilutions) for 3 hrs. The cells were then washed and seeded into 96-well plates (quadruplicate replicates) for pulsing with tritiated thymidine 3 days later. Cells were harvested the next day (=4th day after drug treatment). Tritiated thymidine uptake was analyzed by liquid scintillation.

[5] = tested on: 8226/Dox human myeloma cells; experiment: Sensitization of 8226/Dox cells to Vincristine by MDR-oligos in 5% oxygen; format: cell-based; details: for pIC50: read-out: IC50 dose
Method: as §2

[6] = tested on: 8226/Dox cells; experiment: Sensitization of 8226/Dox cells to VCR by MDR-aptameric oligonucleotides; format: cell-based, human; details: for Fold Increase in Drug Sensitization: compared to media control
[7] = tested on: 8226/Dox cells; experiment: Sensitization of 8226/Dox cells to Vincristine by an MRP-oligo and MDR-ODNs; format: cell-based, human; details: for pIC50: read-out: IC50 dose
Method: as §2
In this example, experimental conditions were identical to those utilized in obtaining the data in Example 2.

[8] = tested on: 8226/Dox cells; experiment: Sensitization of 8226/Dox cells to doxorubicin by MDR-oligos (tritiated thymidine uptake); format: cell-based, human; details: for pIC50: read-out: IC50 dose
Method: Multidrug resistant tumor cells were incubated with 15 μM of OL(6)mdr oligo, Cohen(1)mdr oligo or a negative-control (HIV-2) oligo for 4 days at 37° C. in a humidified incubation chamber. Varying doses (5-fold serial dilutions) of doxorubicin (from 1×10^-5 M to 1×10^-8 M) were then added to the culture wells after the cells had been subcultured into media without oligos; cells were then incubated in the same culture environment for an additional three days. Radiolabeled (tritiated) thymidine was added to all cultures for 24 hr before harvest. Each data point is the mean of 4 replicates.

[9] = tested on: A427 human non-small-cell lung adenocarcinoma cell line; experiment: Sensitization of A427 lung cancer cells to etoposide by MRP-oligos; format: cell-based
Method: The human non-small-cell lung adenocarcinoma cell line A427 was treated with oligos at various concentrations for 4 days in vitro. The cells then were pulsed with various concentrations of etoposide (range 1.6×10^-4 to 1×10^-6 M) for 3 hrs. Next, cells were trypsinized and seeded by volume into 96-well plates with 12 replicates per treatment condition. Three days later, tritiated thymidine was added and the cells harvested the next day.

[10] = tested on: RPMI-8226/Dox4 human multiple myeloma cell line; experiment: Relative activity of MRP-ODNs (summary); format: cell-based; parameters: key: --: no effect; +: weak positive effect; +++++: strong positive effect
[11] = Vincristine IC50 after 4 days with 10 μM oligo, 5% oxygen
[12] = to Vincristine, 10 μM oligo, 5% oxygen

Compound: CC[C@]1(O)C[C@H]2CN(CCc3c([nH]c4ccccc34)[C@@](C(=O)OC)(c3cc4c(cc3OC)N(C=O)[C@H]3[C@@](O)(C(=O)OC)[C@H](OC(C)=O)[C@]5(CC)C=CCN6CC[C@]43[C@@H]65)C2)C1 [Vincristine, reference compound]
- pIC50 [1]: 4.89
- pIC50 ([2]; 120 h, read-out: IC50 Value on Day 5): 6.36
- pIC50 ([2]; 168 h, read-out: IC50 Value on Day 7): 5.15
- pIC50 ([2]; 216 h, read-out: IC50 Value on Day 9): 3.26
- pIC50 [3]: 4.92
- pIC50 ([4]; Homo sapiens): 5.00
- pIC50 ([5]; Homo sapiens): 6.35
- pIC50 ([6]; Homo sapiens, VCR, Media (no oligo)): 4.40
- pIC50 ([7]; Homo sapiens): 5.96

Compound: COc1cccc2c1C(=O)c1c(O)c3c(c(O)c1C2=O)C[C@@](O)(C(=O)CO)C[C@@H]3O[C@H]1C[C@H](N)[C@H](O)[C@H](C)O1 [doxorubicin, reference compound]
- pIC50 ([8]; Homo sapiens): 6.19

Compound: MDR-APT-2: MDR-aptameric oligonucleotide, SEQ ID NO 89: TTCGCCTGATTTCCGCCTCCCGTCT (TTCGCCTGATTTCCGCCTCCCGTCT; chemistry not given here)
- Fold Increase in Drug Sensitization [6]: 20,000 fold

Compound: MDR-APT-3: MDR-aptameric oligonucleotide, SEQ ID NO 90: CGGTCCGTTA TGTTCCTG (CGGTCCGTTATGTTCCTG; chemistry not given here)
- Fold Increase in Drug Sensitization [6]: 5,714 fold

Compound: MDR-APT-4: MDR-aptameric oligonucleotide, SEQ ID NO 91: ACTCGCCTCCCACGTAGTGCTT (ACTCGCCTCCCACGTAGTGCTT; chemistry not given here)
- Fold Increase in Drug Sensitization [6]: > 40,000 fold

Compound: OL(6)mdr: SEQ ID NO 1: CCCACGCCCC GGCGCTGTTC (CCCACGCCCCGGCGCTGTTC; chemistry not given here)
- Etoposide (VP-16) Relative Sensitization (fold increase) ([9]; oligo 1 μM): 0 fold increase
- Etoposide (VP-16) Relative Sensitization (fold increase) ([9]; oligo 2.5 μM): 0 fold increase
- Etoposide (VP-16) Relative Sensitization (fold increase) ([9]; oligo 5.0 μM): 1.2 fold increase
- Etoposide (VP-16) Relative Sensitization (fold increase) ([9]; oligo 10 μM): 1.6 fold increase
- Relative Sensitization (fold increase) Day 5 ([2]; oligo 2 μM): 1.6 fold increase
- Relative Sensitization (fold increase) Day 7 ([2]; oligo 2 μM): 3.5 fold increase
- Relative Sensitization (fold increase) Day 9 ([2]; oligo 2 μM): 61 fold increase
- Relative Sensitization (fold increase) Day 5 ([2]; oligo 10 μM): 1.8 fold increase
- Relative Sensitization (fold increase) Day 7 ([2]; oligo 10 μM): 15.9 fold increase
- Relative Sensitization (fold increase) Day 9 ([2]; oligo 10 μM): 550 fold increase
- pIC50 [4, 11]: 6.92
- Relative sensitization (fold increase) [4, 12]: 83 fold increase
- pIC50 [5, 11]: 6.66
- Relative sensitization (fold increase) [5, 12]: 2.5 fold increase
- pIC50 ([8]; doxorubicin IC50 after 4 days with 15 μM oligo, tritiated thymidine uptake): 6.74
- Relative sensitization (fold increase) ([8]; to doxorubicin, 15 μM oligo, vs medium only): 3.6 fold increase

Compound: OL(8)MRP: SEQ ID NO 64: GCGGGATGAT GATGGCGGCG (GCGGGATGATGATGGCGGCG; chemistry not given here)
- Etoposide (VP-16) Relative Sensitization (fold increase) ([9]; oligo 2.5 μM): 2.0 fold increase
- Etoposide (VP-16) Relative Sensitization (fold increase) ([9]; oligo 5.0 μM): 3.6 fold increase
- Etoposide (VP-16) Relative Sensitization (fold increase) ([9]; oligo 10 μM): 18 fold increase and 18.0 fold increase
- Relative Activity [10]: +++++
- pIC50 ([7]; Vincristine IC50 after oligo treatment, conditions as Example 2): 7.26
- Relative sensitization (fold increase) ([7]; to Vincristine, vs medium only): 20 fold increase
